The compounds below were run against PIK3CA (human) (UniProt P42336) (assay: Assessment of PIK3CA Kinase Activity).
Chain of PIK3CA (human) (P42336 whole entry, looked up): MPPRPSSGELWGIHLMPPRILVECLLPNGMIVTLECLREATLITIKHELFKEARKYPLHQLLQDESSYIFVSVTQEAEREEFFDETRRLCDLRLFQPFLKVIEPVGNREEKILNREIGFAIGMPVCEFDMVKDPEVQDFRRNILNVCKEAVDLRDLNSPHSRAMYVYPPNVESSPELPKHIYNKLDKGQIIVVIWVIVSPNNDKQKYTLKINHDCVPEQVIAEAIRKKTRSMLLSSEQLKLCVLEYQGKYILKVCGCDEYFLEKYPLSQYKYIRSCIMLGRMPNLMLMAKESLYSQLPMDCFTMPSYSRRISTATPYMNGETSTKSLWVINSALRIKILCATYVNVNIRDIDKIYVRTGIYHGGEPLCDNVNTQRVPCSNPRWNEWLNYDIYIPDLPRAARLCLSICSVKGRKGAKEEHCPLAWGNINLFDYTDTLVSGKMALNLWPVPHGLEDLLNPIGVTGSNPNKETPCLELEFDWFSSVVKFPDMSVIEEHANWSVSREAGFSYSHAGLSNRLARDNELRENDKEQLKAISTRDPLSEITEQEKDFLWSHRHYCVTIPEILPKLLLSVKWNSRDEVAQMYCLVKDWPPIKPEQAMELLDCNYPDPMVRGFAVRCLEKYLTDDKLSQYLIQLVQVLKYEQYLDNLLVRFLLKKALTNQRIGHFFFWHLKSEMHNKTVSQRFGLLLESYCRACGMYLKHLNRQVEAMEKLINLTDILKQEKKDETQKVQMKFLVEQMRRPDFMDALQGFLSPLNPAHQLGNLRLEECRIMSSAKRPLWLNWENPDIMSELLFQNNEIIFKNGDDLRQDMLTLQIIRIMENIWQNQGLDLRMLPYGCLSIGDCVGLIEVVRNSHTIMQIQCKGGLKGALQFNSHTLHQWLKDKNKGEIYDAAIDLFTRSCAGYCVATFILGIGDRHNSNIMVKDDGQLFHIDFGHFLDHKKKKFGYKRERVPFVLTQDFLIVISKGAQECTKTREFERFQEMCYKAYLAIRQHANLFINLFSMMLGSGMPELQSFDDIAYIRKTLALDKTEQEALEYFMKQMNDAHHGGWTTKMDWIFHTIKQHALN

IC50 | SMILES
≤ 100 nM | CCc1c(C)nc(CN(C)C)nc1N1CCOc2c(C)cc(-c3cnc4sc(N)nc4c3)cc2C1
≤ 100 nM | Cc1cc(-c2cnc(N)s2)cc2c1OCCN(c1nc(N)nc(C)c1C(C)C)C2
≤ 100 nM | Cc1nc2ccc(-c3cc(C)c4c(c3)CN(c3nc(CN(C)C)nc(C)c3C(C)C)CCO4)cc2[nH]1
≤ 100 nM | Cc1cc(-c2cnc3sc(N)nc3c2)cc2c1OCCN(c1nc(C3CCCN3C)nc(C)c1C(C)C)C2 (stereo unspecified)
≤ 100 nM | C=Cc1c(Cl)nc(N)nc1N1CCOc2c(C)cc(-c3cnc4sc(N)nc4c3)cc2C1
≤ 100 nM | CCNCc1nc(C)c(C(C)C)c(N2CCOc3c(C)cc(-c4cnc5sc(N)nc5c4)cc3C2)n1
≤ 100 nM | COc1nc(C)c(C(C)C)c(N2CCOc3c(C)cc(-c4cnc5sc(N)nc5c4)cc3C2)n1
≤ 100 nM | COCCc1cnc(C)nc1N1CCOc2c(C)cc(-c3cnc4sc(N)nc4c3)cc2C1
≤ 100 nM | Cc1cc(-c2cnc(Cl)c(NS(C)(=O)=O)c2)cc2c1OCCN(c1ncc(C(F)(F)F)c(N)n1)C2
≤ 100 nM | C#Cc1c(C)nc(N)nc1N1CCOc2c(C)cc(-c3cnc4sc(N)nc4c3)cc2C1
100 to 500 nM | Cc1cc(-c2cnc3sc(N)nc3c2)cc2c1OCCN(c1nccc(N)n1)C2
≤ 100 nM | C=Cc1c(C)ncnc1N1CCOc2c(C)cc(-c3cnc4sc(N)nc4c3)cc2C1
≤ 100 nM | CCc1nc(CN(C)C)nc(N2CCOc3c(C)cc(-c4cnc5sc(N)nc5c4)cc3C2)c1C(C)C
≤ 100 nM | Cc1cc(-c2cnc3sc(N)nc3c2)cc2c1OCCN(c1nc(CN3CCCC3)nc(C)c1C(C)C)C2
≤ 100 nM | Cc1cc(-c2cnc3sc(N)nc3c2)cc2c1OCCN(c1nc(N3CC(O)C3)nc(C)c1C(C)C)C2
≤ 100 nM | CCN(CC)Cc1nc(C)c(C(C)C)c(N2CCOc3c(C)cc(-c4cnc5sc(N)nc5c4)cc3C2)n1
≤ 100 nM | CCc1cnc(CN(C)C)nc1N1CCOc2c(C)cc(-c3cnc4sc(N)nc4c3)cc2C1
≤ 100 nM | Cc1cc(-c2cncc(NS(C)(=O)=O)c2)cc2c1OCCN(c1nc(N)nc(C)c1C(C)C)C2

IC50 | SMILES
≤ 100 nM | Cc1cc(-c2cnc3sc(N)nc3c2)cc2c1OCCN(c1ncc(C#N)c(N)n1)C2
100 to 500 nM | Cc1cc(-c2ccc(N)nc2)cc2c1OCCN(c1nc(N)nc(C)c1C(C)C)C2
≤ 100 nM | COCCc1c(C)nc(N)nc1N1CCOc2c(C)cc(-c3cnc4sc(N)nc4c3)cc2C1
≤ 100 nM | Cc1nc2ccc(-c3cc(C)c4c(c3)CN(c3nc(N)nc(C)c3C(C)C)CCO4)cc2[nH]1
≤ 100 nM | CCc1c(Cl)nc(N)nc1N1CCOc2c(C)cc(-c3cnc4sc(N)nc4c3)cc2C1
≤ 100 nM | Cc1cc(-c2cnc(Cl)c(NS(C)(=O)=O)c2)cc2c1OCCN(c1ncc(C#N)c(N)n1)C2
≤ 100 nM | COc1ncc(-c2cc(C)c3c(c2)CN(c2nc(N)nc(C)c2C(C)C)CCO3)cc1NS(C)(=O)=O
≤ 100 nM | Cc1nc2ncc(-c3cc(C)c4c(c3)CN(c3nc(CNCC(F)F)nc(C)c3C(C)C)CCO4)cc2[nH]1
100 to 500 nM | CNc1nc(-c2cc(C)c3c(c2)CN(c2nc(N)nc(C)c2C(C)C)CCO3)cs1
≤ 100 nM | COc1ccc(-c2cc(C)c3c(c2)CN(c2nc(N)nc(C)c2C(C)C)CCO3)cc1OC
≤ 100 nM | Cc1cc(-c2cnc3sc(N)nc3c2)cc2c1OCCN(c1nc(CN(C)C)nc(C)c1C(C)C)C2
≤ 100 nM | COCC(C)c1c(C)nc(C)nc1N1CCOc2c(C)cc(-c3cnc4sc(N)nc4c3)cc2C1 (stereo unspecified)
≤ 100 nM | Cc1cc(-c2cnc3sc(N)nc3c2)cc2c1OCCN(c1nc(N)nc3c1CC(C)(C)CC3)C2
100 to 500 nM | CNC(=O)c1sc(N2CCOc3c(C)cc(-c4cnc(Cl)c(NS(C)(=O)=O)c4)cc3C2)nc1C(C)C
100 to 500 nM | Cc1cc(-c2cnn(C)c2)cc2c1OCCN(c1nc(N)nc(C)c1C(C)C)C2
≤ 100 nM | Cc1cc(-c2ccnc(F)c2)cc2c1OCCN(c1nc(N)nc(C)c1C(C)C)C2
≤ 100 nM | C=Cc1c(C)nc(N)nc1N1CCOc2c(C)cc(-c3nnc(N)s3)cc2C1
≤ 100 nM | Cc1cc(-c2cnc(Cl)c(NS(C)(=O)=O)c2)cc2c1OCCN(c1nc(N)ncc1C(F)(F)F)C2
